Measured values reported in US20200237743A1, “CRAC CHANNEL MODULATORS FOR TREATING ESOPHAGEAL CANCER” (Rhizen Pharmaceuticals SA, priority 2017, published 2020).

Tests used:
[1] = tested on: NF-κB/p65 nuclear translocation in KYSE-150 cells; test: NF-κB/p65 nuclear translocation upon serum stimulation in ESCC cells; format: cell-based, human; conditions: 10% FBS stimulation 1 h (about 84% without treatment)
Protocol: (§1) Compound (A) was tested on blocking nuclear factor kappa B (NF-κB/p65) nuclear translocation upon serum stimulation in ESCC cells. KYSE-150 cells were starved in medium supplemented with 0.1% FBS for 24 h. […] Upon 10% FBS stimulation for 1 h, NF-κB/p65 appeared to translocate to nuclei evidenced by co-localization of nuclei in about 84% of KYSE-150 cells.

[2] = tested on: KYSE-150 mouse xenograft model; test: Anti-tumor effect in esophageal cancer xenograft; format: in vivo; conditions: 20 mg/kg intra-peritoneal every 2 days for 2 weeks, KYSE-150 xenograft mice
Protocol: (§2) The anti-tumor effect of Compound (A) was determined in a KYSE-150 mouse xenograft model. Briefly, 10^6 cells were injected into the flank region. Mice were randomized according to body weight into two groups of five. A week after tumor cell injection, mice either received the vehicle or intra-peritoneal administration of Compound (A) at 20 mg/kg every 2 days for a 2 week period. At the end of the study period, animals were sacrificed and the tumors harvested.

[3] = tested on: NF-κB/p65 in tumor tissues; test: Immunofluorescence staining of xenograft tumor tissues (nuclear NF-κB/p65, cyclin D1); format: in vivo, mouse
Protocol: as §2, §1

[4] = tested on: KYSE-780; test: Anti-proliferative effect in human ESCC cell lines (MTT assay); format: cell-based; conditions: KYSE-780, MTT, 48-72 h incubation, read-out: IC50, cell viability
[5] = tested on: KYSE-70; test: as above; format: cell-based; conditions: KYSE-70, MTT, 48-72 h incubation, read-out: IC50, cell viability
Protocol: (§3) ESCC cell lines (KYSE-30, KYSE-150, KYSE-790, and KYSE-70) were plated in 96-well plates and incubated with desired concentrations of Compound A for 48-72 h. At the end of the incubation period, MTT (3-(4,5-dimethylthiazol-2-yl)-2,5-diphenyltetrazolium bromide) was added. The plate was placed on a shaker for 5 min to mix the formazan and the optical density at 560 nm was measured on a spectrophotometer. Data were plotted using Graphpad Prism for calculation of the IC50 concentrations.

[6] = tested on: KYSE-30; test: as above; format: cell-based; conditions: KYSE-30, MTT, 48-72 h incubation, read-out: IC50, cell viability
Protocol: as §3

[7] = tested on: KYSE-150; test: as above; format: cell-based; conditions: KYSE-150, MTT, 48-72 h incubation, read-out: IC50, cell viability
Protocol: as §3

For `Cc1nnsc1C(=O)Nc1ccc(-n2nc(C(F)(F)F)cc2C(F)(F)F)cc1` [BTP-2, reference compound], the “number of cells with NF-κB/p65 nuclear localization” value ([1]; 20 μM) was 8.53%.
`O=C(Cc1ccc2ncccc2c1)Nc1ccc(-n2nc(C3CC3)cc2C2CC2)cc1` [Compound (A), N-(4-(3,5-dicyclopropyl-1H-pyrazol-1-yl)phenyl)-2-(quinolin-6-yl)acetamide] was tested, and the “tumor growth compared to vehicle treated control group” value [2] was “significantly reduced tumor growth”, the “nuclear NF-κB/p65 positive cells number in tumor tissues” value ([3]; immunofluorescence of tumor tissues, 41% in control animals) was 9% and the “expression of cyclin D1 in tumors compared with control group animals” value ([3]; tumors removed from treated animals) was “dramatically reduced”. The IC50 [4] was 5500 nM, the “number of cells with NF-κB/p65 nuclear localization” value ([1]; 10 μM) was 10.52% and the IC50 [5] was 1400 nM. The IC50 [6] was 1200 nM and the IC50 [7] was 1400 nM.
